Earlier results on five compounds are cited in patent US20230023005A1, “IMPROVING THE PERFORMANCE OF PIGMENT-BASED DYES BY USING A PRETREAMENT AGENT” (Henkel AG & Co. KGaA, priority 2019, published 2023).

For data set [1] the following is noted: 25° C.
The conditions of data set [2]: 5% solution in water.

On to `O=S(=O)([O-])c1ccc(N=Nc2c(O)ccc3ccccc23)cc1.[Na+]` [Acid Orange 7, sodium salt of 4-[(2-hydroxy-1-naphthyl)azo]benzene sulphonate], for which the solubility in water result in data set [1] is on record as “more than 7 g/L”.
`Nc1cc(S(=O)(=O)[O-])cc2cc(S(=O)(=O)[O-])c(N=Nc3ccccc3)c(O)c12.[Na+].[Na+]` [Acid Red 33, diantrium salt of 5-amino-4-hydroxy-3-(phenylazo)-naphthalene-2,7-disulphonate]: the solubility in water in data set [1] is 2500 µg/mL.
On to `O=C([O-])c1c(Cl)c(Cl)c(Cl)c(Cl)c1-c1c2c(Br)cc(=O)c(Br)c-2oc2c(Br)c(O)cc(Br)c12.O=C([O-])c1c(Cl)c(Cl)c(Cl)c(Cl)c1-c1c2c(Br)cc(=O)c(Br)c-2oc2c(Br)c(O)cc(Br)c12.[Na+].[Na+]` [Acid Red 92, disodium salt of 3,4,5,6-tetrachloro-2-(1,4,5,8-tetrabromo-6-hydroxy-3-oxoxanthen-9-yl)benzoic acid], for which, in data set [1], the solubility in water result is listed as “greater than 10 g/L”.
For the compound `O=C([O-])C1=NN(c2ccc(S(=O)(=O)[O-])cc2)C(=O)C1N=Nc1ccc(S(=O)(=O)[O-])cc1.[Na+].[Na+].[Na+]` (centres unmarked) [Acid Yellow 23, trisodium salt of 4,5-dihydro-5-oxo-1-(4-sulfophenyl)-4-((4-sulfophenyl)azo)-1H-pyrazole-3-carboxylic acid], the “solubility in water” value in data set [1] is on record as “highly soluble in water”.
As to `O=P([O-])(O)O.[K+]` [Potassium dihydrogen phosphate], in data set [2], the “pH value of solution in water” value is 4.4.
